Measured values as given in ChEMBL document CHEMBL1201862, “PubChem BioAssay data set” (2004).
Active and inactive are the calls of the source.

How the values were obtained:
Large T antigen = Large T antigen (Simian virus 40, UniProt P03070); format: functional, Betapolyomavirus macacae;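 note: Confirmatory-stage PubChem screen for compounds that inhibit SV40 T antigen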
NS3 = NS3 (Hepatitis C virus, UniProt A3EZJ3); test: PubChem AID 2173; set-up: species or system Hepacivirus hominis
[1] = molecular target: T1, Long-chain-fatty-acid--AMP ligase FadD28 (Mycobacterium tuberculosis, UniProt P9WQ59); test: Fluorescence polarization aasay to screen for inhibitors that compete for the binding of FadD28 to a bisubstrate Measured in Biochemical System Using Plate Reader - 2147-01_Inhibitor_Dose_CherryPick_Activity.; format: functional, Mycobacterium tuberculosis H37Rv
T1 sequence (P9WQ59 whole entry): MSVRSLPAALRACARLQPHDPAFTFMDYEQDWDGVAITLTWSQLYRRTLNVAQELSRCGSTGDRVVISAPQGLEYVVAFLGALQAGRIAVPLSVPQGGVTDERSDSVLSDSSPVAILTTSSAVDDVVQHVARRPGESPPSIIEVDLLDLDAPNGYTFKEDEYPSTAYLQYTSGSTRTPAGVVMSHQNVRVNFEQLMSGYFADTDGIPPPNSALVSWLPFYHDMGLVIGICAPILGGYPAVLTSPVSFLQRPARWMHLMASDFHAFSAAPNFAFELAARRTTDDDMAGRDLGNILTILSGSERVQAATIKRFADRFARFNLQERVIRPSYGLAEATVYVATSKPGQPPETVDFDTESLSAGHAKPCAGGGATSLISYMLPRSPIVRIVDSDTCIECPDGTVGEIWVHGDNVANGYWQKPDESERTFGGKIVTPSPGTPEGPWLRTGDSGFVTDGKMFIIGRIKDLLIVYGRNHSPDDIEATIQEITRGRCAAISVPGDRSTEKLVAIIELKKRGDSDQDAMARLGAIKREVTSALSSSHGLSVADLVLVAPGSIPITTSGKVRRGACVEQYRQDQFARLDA

cells [2] = test: cells
[3] = HEp-2 cell cytotoxicity, dose response, cytotoxicity control for RSV inhibitor project, HTS (AID 2410); format: functional; settings: human respiratory syncytial virus
[4] = molecular target: T2, Short transient receptor potential channel 4 (Mus musculus, UniProt Q9QUQ5); test: mouse TRPC4 channel inhibitors, dose response, cell-based, HEK293 TRPC4/mu-opioid, Fluo-4 calcium (AID 434942); format: functional;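 note: potency of inhibitors blocking the TRPC4 calcium response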
T2 sequence (Q9QUQ5 whole entry): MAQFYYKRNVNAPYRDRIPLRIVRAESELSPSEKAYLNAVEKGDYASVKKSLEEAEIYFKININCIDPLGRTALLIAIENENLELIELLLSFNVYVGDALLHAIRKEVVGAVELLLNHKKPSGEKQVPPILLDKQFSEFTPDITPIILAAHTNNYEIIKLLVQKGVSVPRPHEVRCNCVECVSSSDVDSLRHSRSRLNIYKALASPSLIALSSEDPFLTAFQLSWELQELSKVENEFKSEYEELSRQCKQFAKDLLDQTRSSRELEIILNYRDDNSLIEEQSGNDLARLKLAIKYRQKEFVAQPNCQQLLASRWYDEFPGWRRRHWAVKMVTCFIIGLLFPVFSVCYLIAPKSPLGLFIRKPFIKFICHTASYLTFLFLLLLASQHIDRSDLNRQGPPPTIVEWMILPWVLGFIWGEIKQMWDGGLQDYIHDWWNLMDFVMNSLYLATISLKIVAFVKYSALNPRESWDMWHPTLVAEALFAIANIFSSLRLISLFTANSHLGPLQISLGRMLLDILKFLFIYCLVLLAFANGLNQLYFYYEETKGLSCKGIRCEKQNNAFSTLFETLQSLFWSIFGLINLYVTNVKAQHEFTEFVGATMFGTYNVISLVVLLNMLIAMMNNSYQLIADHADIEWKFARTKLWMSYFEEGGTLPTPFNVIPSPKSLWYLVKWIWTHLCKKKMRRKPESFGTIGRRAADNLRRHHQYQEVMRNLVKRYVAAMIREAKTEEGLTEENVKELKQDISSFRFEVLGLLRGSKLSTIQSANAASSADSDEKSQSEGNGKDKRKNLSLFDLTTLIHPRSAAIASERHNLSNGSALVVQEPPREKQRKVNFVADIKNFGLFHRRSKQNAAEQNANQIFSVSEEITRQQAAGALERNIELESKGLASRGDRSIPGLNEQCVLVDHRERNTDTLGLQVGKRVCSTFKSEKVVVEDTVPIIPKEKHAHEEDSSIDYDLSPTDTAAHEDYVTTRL

[5] = molecular target: T3, Microphthalmia-associated transcription factor (Homo sapiens, UniProt O75030); test: TRPM1 promoter luciferase signal decrease, dose response, MITF inhibitor project, cell-based, SK-MEL-5, cherry-picked, set 3 (AID 493073); format: functional
T3 sequence (O75030 whole entry): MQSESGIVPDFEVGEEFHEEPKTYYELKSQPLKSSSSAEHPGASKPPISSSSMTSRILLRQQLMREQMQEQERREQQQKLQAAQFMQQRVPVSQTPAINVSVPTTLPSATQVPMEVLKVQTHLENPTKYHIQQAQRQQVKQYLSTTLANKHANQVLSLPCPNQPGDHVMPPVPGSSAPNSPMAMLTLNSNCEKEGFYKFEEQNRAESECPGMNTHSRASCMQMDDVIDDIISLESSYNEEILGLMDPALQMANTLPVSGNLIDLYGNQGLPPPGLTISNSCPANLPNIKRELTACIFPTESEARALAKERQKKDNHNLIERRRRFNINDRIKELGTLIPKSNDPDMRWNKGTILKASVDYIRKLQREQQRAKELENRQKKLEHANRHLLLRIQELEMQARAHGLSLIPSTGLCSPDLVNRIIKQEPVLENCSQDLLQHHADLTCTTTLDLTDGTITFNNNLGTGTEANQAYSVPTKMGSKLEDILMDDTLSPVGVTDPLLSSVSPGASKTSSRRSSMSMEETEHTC

[6] = molecular target: Luciferin 4-monooxygenase (Photinus pyralis, UniProt P08659); test: Counter Screen for Luciferase-based Assay Positives. [Related pubchem assays: 620, 618, 411 ]
Leucine aminopeptidase = molecular target: T4, Leucine aminopeptidase (Plasmodium falciparum 3D7, UniProt Q8IL11); test: P. falciparum M17LAP inhibitors, primary screen, biochemical, fluorogenic H-Leu-NHMec substrate, 1536-well (AID 1619); format: functional
T4 sequence (Q8IL11 whole entry): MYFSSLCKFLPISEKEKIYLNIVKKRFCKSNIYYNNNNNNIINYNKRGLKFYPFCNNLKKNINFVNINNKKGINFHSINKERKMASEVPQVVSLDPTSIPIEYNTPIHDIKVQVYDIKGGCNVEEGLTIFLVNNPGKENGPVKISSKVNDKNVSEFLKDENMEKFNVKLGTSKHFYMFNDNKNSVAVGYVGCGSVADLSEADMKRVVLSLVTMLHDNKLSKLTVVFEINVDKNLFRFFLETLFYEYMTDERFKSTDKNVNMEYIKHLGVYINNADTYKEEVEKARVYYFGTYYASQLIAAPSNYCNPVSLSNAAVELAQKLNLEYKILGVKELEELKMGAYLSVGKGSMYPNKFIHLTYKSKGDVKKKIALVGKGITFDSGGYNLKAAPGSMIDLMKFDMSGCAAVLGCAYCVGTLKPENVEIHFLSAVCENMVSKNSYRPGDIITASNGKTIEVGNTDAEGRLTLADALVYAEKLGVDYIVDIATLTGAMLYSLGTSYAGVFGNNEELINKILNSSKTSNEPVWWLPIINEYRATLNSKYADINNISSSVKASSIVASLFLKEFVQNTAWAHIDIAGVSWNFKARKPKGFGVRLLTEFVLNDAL

[7] = inhibitors of firefly luciferase expression or activity, dose response, H4 neuroglioma cells, luminescence (AID 1990); format: functional, cell-based
[8] = cytotoxicity in HEK-293T cells, dose response, cytotoxicity control for TCR NF-kB inhibitor project, luminescence, T-cell screen hits (AID 489026); format: functional, cell-based;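 note: cells exposed to compound about 14 hours before the viability readout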
BJ [9] = test: cells; format: functional, cell-based; settings: Homo sapiens
cells [10] = format: functional, cell-based
[11] = molecular target: T5, Nuclear receptor subfamily 0 group B member 1 (Homo sapiens, UniProt P51843); format: functional, cell-based;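 note: HEK293T cells transfected with SF-1 and DAX-1 plus StAR promoter luciferase reporter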
T5 sequence (P51843 whole entry): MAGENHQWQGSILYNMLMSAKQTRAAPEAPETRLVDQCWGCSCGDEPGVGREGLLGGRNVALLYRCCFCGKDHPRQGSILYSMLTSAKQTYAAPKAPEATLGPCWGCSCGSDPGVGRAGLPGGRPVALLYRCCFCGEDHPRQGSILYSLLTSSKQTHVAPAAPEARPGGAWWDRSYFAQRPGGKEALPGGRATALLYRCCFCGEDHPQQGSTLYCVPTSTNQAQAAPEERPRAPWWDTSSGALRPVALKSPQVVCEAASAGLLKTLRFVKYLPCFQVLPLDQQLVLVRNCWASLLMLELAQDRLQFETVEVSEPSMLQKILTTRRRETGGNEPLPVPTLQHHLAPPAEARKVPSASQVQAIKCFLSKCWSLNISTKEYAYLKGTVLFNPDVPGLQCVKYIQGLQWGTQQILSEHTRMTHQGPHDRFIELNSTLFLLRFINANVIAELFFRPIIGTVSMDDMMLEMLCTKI

[12] = luciferase reporter signal reduction – luminescence, H4-C neuroglioblastoma cells, dose response (AID 2458); format: functional, cell-based;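 note: H4 neuroglioblastoma cells stably carrying a luciferase reporter gene fusion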
[13] = inhibitors of SNCA 5'UTR-driven reporter translation, confirmation, H4 neuroglioma cells, luminescence (AID 1988); format: functional, cell-based
cells [14] = format: functional, cell-based; remark: listed apart in the source
BJ [15] = test: cytotoxicity toward BJ-TERT fibroblasts, dose response, cell-based, RAS-independent, luminescence (AID 1933); format: functional; settings: Homo sapiens
BJ [16] = test: cytotoxicity toward BJ-TERT-LT-ST fibroblasts, dose response, cell-based, RAS-independent, luminescence (AID 1935); format: functional; settings: Homo sapiens;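 note: BJ fibroblasts immortalized with TERT plus LT and ST oncogenes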
[17] = inhibitors of SNCA 5'UTR-driven translation, confirmation, luminescence, H4 neuroglioblastoma cells, dose confirmation (AID 2454); format: functional, cell-based;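 note: H4 neuroglioblastoma cells carrying an alpha-synuclein 5'UTR luciferase reporter; potency for inhibition of the luciferase signal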
Paired box protein Pax-8 = Paired box protein Pax-8 (Homo sapiens, UniProt Q06710); test: inhibitors of PAX8-driven TPO luciferase reporter, dose response, RMG-I cells, cherry-pick (AID 687027); format: functional, cell-based;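 note: luciferase reporter driven by Pax8 target thyroperoxidase promoter measured by SteadyGlo luminescence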
[18] = cytotoxicity toward DRD oncogenic fibroblasts, dose response, cell-based, non-viral oncogenic, luminescence (AID 1934); format: functional; settings: Homo sapiens
[19] = Luminescence Cell-Based Dose Response HTS to Identify Inhibitors of 5'UTR Stem-Loop Driven Prion Protein mRNA Translation in H4 Neuroglioblastoma Cells. [Related pubchem assays: 1827 (Project Summary), 1813 (Primary HTS)]; format: functional
Bcl-2-like protein 10 = Bcl-2-like protein 10 (Homo sapiens, UniProt Q9HD36); test: displacers of TR3 peptide from Bcl-B, primary screen, selectivity assay for Bfl-1 inhibitor project, biochemical, fluorescence polarization, FITC-TR3 peptide (AID 748);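 note: fluorescence polarization from a fluorescein-labelled TR3 peptide binding purified Bcl-B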
[20] = inhibitors of HIV Env-driven cell fusion, dose response, cherry-pick (AID 652057); format: functional, cell-based
[21] = off-target signal loss in HeLa-CEM21 co-culture – HeLa F-luc CTL cells, cherry-picked, counter-screen for HIV-1 Env fusion inhibitor project, dose response (AID 652040); format: functional, cell-based;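 note: potency for signal decrease marking cytotoxic or nonspecific inhibition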
HT-1080 = test: cytotoxicity in HT1080 fibrosarcoma cells, cell-based, fluorescence readout (AID 620); format: functional; settings: Homo sapiens
[22] = inhibitors of clade B AD8 Env fusion, dose response, cell-based, cherry-pick (AID 652062); format: functional;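 note: luciferase signal from cell-cell fusion driven by HIV-1 clade B AD8 Env; potency is for inhibitors of fusion seen as a drop in luminescence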
[23] = ZM109 Env clade C HIV-1 fusion inhibitors, dose response, HeLa effector, CEM target cells, luciferase, cherry-pick (AID 652058); format: functional, cell-based
[24] = cytotoxicity in HEK-293T cells, dose response, cytotoxicity control for BCR NF-kB inhibitor project, luminescence, B-cell screen hits (AID 489021); format: functional, cell-based;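 note: HEK-293T cells carrying an NF-kB luciferase reporter; cells exposed to compound for about 14 hours before viability readout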

Chain of Luciferin 4-monooxygenase (P08659 whole entry): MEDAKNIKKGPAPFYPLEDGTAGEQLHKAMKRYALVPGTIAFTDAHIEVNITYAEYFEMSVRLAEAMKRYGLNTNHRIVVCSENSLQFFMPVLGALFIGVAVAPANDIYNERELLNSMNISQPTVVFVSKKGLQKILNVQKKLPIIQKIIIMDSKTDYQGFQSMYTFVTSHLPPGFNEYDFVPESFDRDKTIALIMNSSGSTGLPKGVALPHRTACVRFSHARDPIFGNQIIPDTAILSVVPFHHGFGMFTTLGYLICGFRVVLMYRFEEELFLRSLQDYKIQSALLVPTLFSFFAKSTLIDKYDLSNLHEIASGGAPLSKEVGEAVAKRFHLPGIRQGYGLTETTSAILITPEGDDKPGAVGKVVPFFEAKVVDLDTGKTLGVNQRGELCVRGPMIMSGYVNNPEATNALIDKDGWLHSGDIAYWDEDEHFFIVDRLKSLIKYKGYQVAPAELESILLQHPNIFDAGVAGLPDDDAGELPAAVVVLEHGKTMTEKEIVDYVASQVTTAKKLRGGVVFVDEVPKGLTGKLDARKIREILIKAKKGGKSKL
Chain of NS3 (A3EZJ3 whole entry): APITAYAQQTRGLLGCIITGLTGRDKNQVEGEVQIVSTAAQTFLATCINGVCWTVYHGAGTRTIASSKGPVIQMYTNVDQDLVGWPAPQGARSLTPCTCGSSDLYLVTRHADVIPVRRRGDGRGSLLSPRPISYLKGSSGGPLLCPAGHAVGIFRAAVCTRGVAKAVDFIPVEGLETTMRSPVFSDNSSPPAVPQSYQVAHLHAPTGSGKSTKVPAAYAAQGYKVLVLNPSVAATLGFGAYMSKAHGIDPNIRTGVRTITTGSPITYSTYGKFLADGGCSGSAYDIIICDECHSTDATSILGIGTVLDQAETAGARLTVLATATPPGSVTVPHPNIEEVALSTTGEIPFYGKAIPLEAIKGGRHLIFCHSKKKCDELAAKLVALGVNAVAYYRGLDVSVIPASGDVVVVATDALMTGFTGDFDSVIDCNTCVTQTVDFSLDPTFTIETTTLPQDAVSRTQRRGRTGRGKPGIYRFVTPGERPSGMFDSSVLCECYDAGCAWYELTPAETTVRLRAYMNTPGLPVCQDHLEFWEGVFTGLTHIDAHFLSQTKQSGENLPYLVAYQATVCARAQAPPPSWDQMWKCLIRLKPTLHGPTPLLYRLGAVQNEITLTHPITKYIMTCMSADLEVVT
Chain of Paired box protein Pax-8 (Q06710 whole entry): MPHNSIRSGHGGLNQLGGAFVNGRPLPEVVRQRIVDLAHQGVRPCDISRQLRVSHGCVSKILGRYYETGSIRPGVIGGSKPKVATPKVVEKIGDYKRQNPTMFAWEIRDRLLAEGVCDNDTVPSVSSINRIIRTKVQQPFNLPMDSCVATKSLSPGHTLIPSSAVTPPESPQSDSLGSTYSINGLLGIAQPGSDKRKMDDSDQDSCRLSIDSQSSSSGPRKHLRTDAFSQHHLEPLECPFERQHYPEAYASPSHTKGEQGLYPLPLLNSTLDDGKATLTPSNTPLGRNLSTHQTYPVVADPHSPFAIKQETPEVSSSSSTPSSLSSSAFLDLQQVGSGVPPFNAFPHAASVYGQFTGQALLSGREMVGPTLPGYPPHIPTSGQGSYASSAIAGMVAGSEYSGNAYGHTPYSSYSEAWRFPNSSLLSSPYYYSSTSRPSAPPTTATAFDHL
Chain of Large T antigen (P03070 whole entry): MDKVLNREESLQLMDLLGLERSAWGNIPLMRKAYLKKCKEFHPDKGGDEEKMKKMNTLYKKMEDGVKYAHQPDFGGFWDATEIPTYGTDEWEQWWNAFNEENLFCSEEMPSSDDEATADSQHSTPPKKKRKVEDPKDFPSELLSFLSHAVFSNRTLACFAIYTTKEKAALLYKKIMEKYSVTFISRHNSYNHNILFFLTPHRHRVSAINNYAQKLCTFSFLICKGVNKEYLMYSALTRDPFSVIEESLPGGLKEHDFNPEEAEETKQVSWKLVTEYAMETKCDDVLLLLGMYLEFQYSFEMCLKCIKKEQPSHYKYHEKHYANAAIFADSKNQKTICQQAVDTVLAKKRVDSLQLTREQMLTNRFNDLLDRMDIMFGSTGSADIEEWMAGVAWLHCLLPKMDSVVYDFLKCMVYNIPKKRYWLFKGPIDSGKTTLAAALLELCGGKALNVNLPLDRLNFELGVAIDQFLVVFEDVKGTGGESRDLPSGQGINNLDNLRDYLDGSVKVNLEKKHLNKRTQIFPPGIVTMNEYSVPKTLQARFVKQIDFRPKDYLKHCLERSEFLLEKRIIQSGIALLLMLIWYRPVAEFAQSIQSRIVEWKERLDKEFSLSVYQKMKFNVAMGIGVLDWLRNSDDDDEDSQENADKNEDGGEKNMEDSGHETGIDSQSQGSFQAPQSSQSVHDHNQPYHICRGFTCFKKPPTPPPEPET
Chain of Bcl-2-like protein 10 (Q9HD36 whole entry, the tested form may be a part): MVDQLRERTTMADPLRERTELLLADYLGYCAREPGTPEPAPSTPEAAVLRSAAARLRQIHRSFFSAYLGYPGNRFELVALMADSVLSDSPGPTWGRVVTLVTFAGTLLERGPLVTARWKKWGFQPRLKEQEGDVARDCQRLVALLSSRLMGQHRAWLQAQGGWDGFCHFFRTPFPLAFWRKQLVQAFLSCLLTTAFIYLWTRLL

## O=c1c2c(O)cc(CSc3ccc(Cl)cc3)nc2[nH]n1-c1ccccc1
Large T antigen
  IC50: > 100 µM (active)
NS3
  IC50: 5.22 µM (active)
[1]
  AC50: 23.4 µM (active)

## Cc1cc(O)nc(N/N=C/c2c(C)nn(-c3ccccc3Cl)c2Cl)n1
Cells [2]
  IC50: 41.5 µM (active)
[3]
  CC50: 21.2 µM (active)

## CCc1cccc(OCC(=O)Nc2ccc(C(=O)O)cc2NC(=O)COc2cccc(CC)c2)c1
[4]
  EC50: 11.9 µM (active)

## N#Cc1c(NC(=O)CSc2nnc[nH]2)sc2c1CCCC2
[5]
  AC50: 0.599 µM (active)
[6]
  EC50: 27.8 µM (active)
Leucine aminopeptidase
  IC50: 4.79 µM (active)

## COc1ccc(NC(=O)C(=O)NCC2CCCN2S(=O)(=O)c2ccc(C)cc2)cc1 (stereo unspecified)
[7]
  EC50: < 0.1 µM (active)
[8]
  IC50: > 80 µM (inactive)
BJ [9]
  EC50: 11.7 µM (inconclusive)
Cells [10]
  IC50: > 67.5 µM (inactive)
[11]
  IC50: > 67.5 µM (inactive)
[12]
  EC50: 0.051 µM (active)
[13]
  EC50: < 0.1 µM (active)
Cells [14]
  EC50: 0.06 µM (active)
BJ [15]
  EC50: 0.625 µM (active)
BJ [16]
  EC50: 0.611 µM (active)
[17]
  EC50: 0.047 µM (active)
Paired box protein Pax-8
  AC50: 0.709 µM (active)
[18]
  EC50: 0.484 µM (active)

## O=C(CSc1nnc(-c2ccc(Br)cc2)o1)Nc1cccc(C(=O)O)c1
[7]
  EC50: 3.04 µM (active)
[12]
  EC50: 0.31 µM (active)
[13]
  EC50: < 0.1 µM (active)
Cells [14]
  EC50: 0.934 µM (active)
[19]
  EC50: < 0.1 µM (active)
[17]
  EC50: 0.409 µM (active)

## N#C/C(=C\c1ccc(O)c(O)c1)S(=O)(=O)c1ccccc1
NS3
  IC50: 4.39 µM (active)
Leucine aminopeptidase
  IC50: 7.23 µM (active)

## CCCN1C2=NCCN2c2cc(C)c(C)cc21
[4]
  EC50: 5.96 µM (active)

## Cc1c[nH]c2cccc(OCC(O)CNC(C)(C)C)c12 (stereo unspecified)
Bcl-2-like protein 10
  IC50: > 100 µM (inactive)

## COc1ccc(C(c2c(NC(=O)c3ccco3)sc(C)c2C)N2CCOCC2)cc1OC (stereo unspecified)
Cells [2]
  IC50: 4.07 µM (active)
[3]
  CC50: 46.5 µM (active)

## COc1ccc(-c2noc(CCCC(=O)O)n2)cc1
[20]
  AC50: 2.26 µM (active)
[21]
  AC50: 1.59 µM (active)
HT-1080
  EC50: > 50 µM (not active)
[6]
  EC50: 3.3 µM (active)
[22]
  AC50: 1.1 µM (active)
[23]
  AC50: 1.08 µM (active)
[24]
  IC50: > 80 µM (inactive)
